Entries after “also recorded” stand apart in the source; their conditions may differ. Where two headings read alike, the source gives them in different places.
How the values were obtained:
[1] = Pharmacokinetics of plasma chiauranib after single and multiple oral doses in patients (LC-MS/MS); format: in vivo, human
Experimental: Three milliliters of venous blood samples was drawn into heparinized tubes before drug administration as well as at 1, 2, 4, 6, 8, 12, 24, 48, 72, 96, 120, and 144 h post-dose. […] Three milliliters of venous blood samples was drawn into heparinized tubes before administration as well as at 1, 2, 4, 8, 12, and 24 h post the oral dose on day 28. […] Samples were centrifuged immediately at 3600×g for 10 min at 4 °C, and the plasma fractions were separated and stored at − 20 °C until analysis.
The intra- and inter-day precisions and accuracies (relative standard deviation, %RSD) were in the range of 1.75–6.33%, and − 7.88–9.00%, respectively. The extraction recovery (relative standard deviation, %RSD) was 1.32–5.16%.
Descriptive statistics were used for baseline characteristics, safety assessments, pharmacokinetic variables (including Cmax, Tmax, AUC, and t1/2) and exploratory efficacy assessments, including tumor response and time to progression. Continuous variables were summarized with means, standard deviations (SD), medians, minimums, and maximums. Categorical variables were summarized by counts and by percentage of patients in corresponding categories. P values < 0.05 were considered statistically significant. Statistical analyses were performed using SAS® v9.4 (Cary, NC).

[2] = system: advanced solid tumor and lymphoma; experiment: Tumor response by RECIST 1.1 in patients; format: in vivo, human
Experimental: Tumor response was evaluated by the Response Evaluation Criteria in Solid Tumors (RECIST) version 1.1. Tumor response was assessed by computed tomography (CT) and/or magnetic resonance imaging (MRI) scans at screening and every 8 weeks (2 cycles) during the first 12 cycles.

[3] = system: VEGFR2; parameters: method as in PMID 28004478; settings: cited from earlier work
[4] = system: human tumor xenograft models inoculated with human cancer cell lines derived from colon, lung, liver, or stomach cancers; parameters: method as in PMID 28004478; settings: cited from earlier work
[5] = Day28, multiple dose 10 mg once daily (n = 2)
[6] = Day28, multiple dose 20 mg once daily (n = 6)
[7] = Day28, multiple dose 35 mg once daily (n = 3)
[8] = Day28, multiple dose 50 mg once daily (n = 3)
[9] = Day28, multiple dose 65 mg once daily (n = 4)
[10] = human, plasma, oral, 10 mg, Day1, single dose 10 mg (n = 2)
[11] = human, plasma, oral, 10 mg, Day28, multiple dose 10 mg once daily (n = 2)
[12] = human, plasma, oral, 20 mg, Day1, single dose 20 mg (n = 6)
[13] = human, plasma, oral, 20 mg, Day28, multiple dose 20 mg once daily (n = 6)
[14] = human, plasma, oral, 35 mg, Day1, single dose 35 mg (n = 3)
[15] = human, plasma, oral, 35 mg, Day28, multiple dose 35 mg once daily (n = 3)
[16] = human, plasma, oral, 50 mg, Day1, single dose 50 mg (n = 3)
[17] = human, plasma, oral, 50 mg, Day28, multiple dose 50 mg once daily (n = 3)
[18] = human, plasma, oral, 65 mg, Day1, single dose 65 mg (n = 4)
[19] = human, plasma, oral, 65 mg, Day28, multiple dose 65 mg once daily (n = 4)

Structure (SMILES): COc1ccc2c(Oc3ccc4c(C(=O)Nc5ccccc5N)cccc4c3)ccnc2c1 [chiauranib]
- dose dependence of plasma exposure ([1]; 10 to 65 mg, single and multiple dose): dose proportional and good linear pharmacokinetic profile
- Cav [1, 5]: 174 (9) ng/mL
- Ctrough [1, 5]: 122 (21) ng/mL
- DF [1, 5]: 1.1 (0.4)
- Cav [1, 6]: 257 (64) ng/mL
- Ctrough [1, 6]: 191 (89) ng/mL
- DF [1, 6]: 1.3 (0.6)
- Cav [1, 7]: 490 (336) ng/mL
- Ctrough [1, 7]: 330 (208) ng/mL
- DF [1, 7]: 0.8 (0.4)
- Cav [1, 8]: 604 (235) ng/mL
- Ctrough [1, 8]: 467 (166) ng/mL
- DF [1, 8]: 1.1 (0.3)
- Cav [1, 9]: 1010 (492) ng/mL
- Ctrough [1, 9]: 890 (662) ng/mL
- DF [1, 9]: 1.5 (0.8)
- median peak time ([1]; after first dose in run-in period, 10-65 mg, range from 1 to 4 h): 2 h
- increase of trough plasma concentration versus after first administration ([1]; continuous once daily dosing): twofold
- Cmax [1, 10]: 201 ng/mL
- Tmax [1, 10]: 2 h
- AUC(0-t) ([1]; human, plasma, oral, 10 mg, Day1, single dose 10 mg (n = 2), read-out: AUC0–24 h): 2000 ng·h/mL
- AUC(0-t) ([1]; human, plasma, oral, 10 mg, Day1, single dose 10 mg (n = 2), read-out: AUC0–144 h): 3580 ng·h/mL
- Cmax [1, 11]: 312 ng/mL
- Tmax [1, 11]: 2 h
- AUC(0-t) ([1]; human, plasma, oral, 10 mg, Day28, multiple dose 10 mg once daily (n = 2), read-out: AUC0–24 h): 4180 ng·h/mL
- Cmax [1, 12]: 354 ng/mL
- Tmax [1, 12]: 2 h
- AUC(0-t) ([1]; human, plasma, oral, 20 mg, Day1, single dose 20 mg (n = 6), read-out: AUC0–24 h): 3450 ng·h/mL
- AUC(0-t) ([1]; human, plasma, oral, 20 mg, Day1, single dose 20 mg (n = 6), read-out: AUC0–144 h): 6820 ng·h/mL
- Cmax [1, 13]: 517 ng/mL
- Tmax [1, 13]: 2 h
- AUC(0-t) ([1]; human, plasma, oral, 20 mg, Day28, multiple dose 20 mg once daily (n = 6), read-out: AUC0–24 h): 6180 ng·h/mL
- Cmax [1, 14]: 608 ng/mL
- Tmax [1, 14]: 1 h
- AUC(0-t) ([1]; human, plasma, oral, 35 mg, Day1, single dose 35 mg (n = 3), read-out: AUC0–24 h): 5760 ng·h/mL
- AUC(0-t) ([1]; human, plasma, oral, 35 mg, Day1, single dose 35 mg (n = 3), read-out: AUC0–144 h): 11900 ng·h/mL
- Cmax [1, 15]: 773 ng/mL
- Tmax [1, 15]: 4 h
- AUC(0-t) ([1]; human, plasma, oral, 35 mg, Day28, multiple dose 35 mg once daily (n = 3), read-out: AUC0–24 h): 11800 ng·h/mL
- Cmax [1, 16]: 756 ng/mL
- Tmax [1, 16]: 1 h
- AUC(0-t) ([1]; human, plasma, oral, 50 mg, Day1, single dose 50 mg (n = 3), read-out: AUC0–24 h): 7420 ng·h/mL
- AUC(0-t) ([1]; human, plasma, oral, 50 mg, Day1, single dose 50 mg (n = 3), read-out: AUC0–144 h): 16400 ng·h/mL
- Cmax [1, 17]: 1120 ng/mL
- Tmax [1, 17]: 2 h
- AUC(0-t) ([1]; human, plasma, oral, 50 mg, Day28, multiple dose 50 mg once daily (n = 3), read-out: AUC0–24 h): 14500 ng·h/mL
- Cmax [1, 18]: 1280 ng/mL
- Tmax [1, 18]: 1.5 h
- AUC(0-t) ([1]; human, plasma, oral, 65 mg, Day1, single dose 65 mg (n = 4), read-out: AUC0–24 h): 11000 ng·h/mL
- AUC(0-t) ([1]; human, plasma, oral, 65 mg, Day1, single dose 65 mg (n = 4), read-out: AUC0–144 h): 24800 ng·h/mL
- Cmax [1, 19]: 2240 ng/mL
- Tmax [1, 19]: 2 h
- AUC(0-t) ([1]; human, plasma, oral, 65 mg, Day28, multiple dose 65 mg once daily (n = 4), read-out: AUC0–24 h): 24200 ng·h/mL
- half-life ([1]; human, plasma, oral, after first dose in run-in period, 10-65 mg, read-out: terminal half-life (t1/2) (converted)): 25.6 ± 6.73 h
- patients achieving SD among six with prior anti-angiogenic agents ([2]; 6/18 patients pretreated with anti-angiogenic agents): five
- stable disease (SD) as best response ([2]; 12 of 18 patients, investigator's assessment): 66.7%
- complete or partial response ([2]; 18 patients): No complete or partial responses were observed; also recorded: No partial or complete response was observed
- duration of confirmed SD ([2]; one patient with DLBCL, 10 mg cohort): 596 days
- change in the sum of the longest diameters of target lesions at best response ([2]; one patient with ovarian cancer (65 mg cohort)): 22.2%
- IC50 [3]: single-digit nanomolar range
- activity against human tumor xenograft models [4]: broad activity
